In patent US20260027116A1, “Methods of Treating Chronic Graft-Versus-Host Disease Following Allogeneic Hematopoietic Stem Cell Transplantation” (Kadmon Corporation, LLC, priority 2022, published 2026):

System: cGVHD symptom burden
Assay: Example 1: Lee Symptom Scale (LSS) score
Type: in vivo, human
Experimental: Lee Symptom Scale (LSS) summary score measures the effect on patients' functioning and well-being. The Lee Symptom Scale is a 30-item scale developed to measure the symptoms of cGVHD and is described in Lec S J, Cook E F, Soiffer R, Antin J H. Development and validation of a scale to measure symptoms of chronic graft-versushost disease. Biol Blood Marrow Transplant 2002; 8:444-452.
All responses were assessed by the investigators.
Change From Baseline in Overall Score on Lee cGvHD Symptom Scale at Specified Time Points. Lee cGVHD symptom scale, a patient-reported symptom scale used to measure symptom burden and has 7 subscales (Skin, Eyes and Mouth, Breathing, Eating and Digestion, Muscles and Joints, Energy, and Mental and Emotional) with ratings as follows: 0—Not at all, 1—Slightly, 2—Moderately, 3—Quite a bit, 4—Extremely, with lower values representing better outcome. Score for each subscale was normalized to a score ranged from 0 to 100, where higher score=worse symptoms. An overall score was calculated as average of these 7 subscales. EOT visit was performed within 3 days after the participant's last dose of study drug. Baseline value was defined as valid and last non-missing value obtained within 28 days prior to participant receiving first study medication. […] Analysis was performed on mITT population. Here, ‘number analyzed’=participants with available data for each specified category. Here, ‘0’ in the number analyzed field signifies that none of the participants were available for the analysis at the specified time points.

SMILES: CC(C)NC(=O)COc1cccc(-c2nc(Nc3ccc4[nH]ncc4c3)c3ccccc3n2)c1 [Belumosudil, 2-{3-[4-(1H-indazol-5-ylamino)-2-quinazolinyl]phenoxy}-N-(propan-2-yl) acetamide]
- Change From Baseline in Overall Score on Lee cGvHD Symptom Scale, Mean (Standard Deviation) (Cohort 2: 200 mg BID, Cycle 8, Day 1): −7.1 (10.1) score on a scale
- Change From Baseline in Overall Score on Lee cGvHD Symptom Scale, Mean (Standard Deviation) (Cohort 2: 200 mg BID, Cycle 9, Day 1): −4.2 (5.5) score on a scale
- Change From Baseline in Overall Score on Lee cGvHD Symptom Scale, Mean (Standard Deviation) (Cohort 2: 200 mg BID, Cycle 10, Day 1): −2.7 (6.1) score on a scale
- Change From Baseline in Overall Score on Lee cGvHD Symptom Scale, Mean (Standard Deviation) (Cohort 2: 200 mg BID, Cycle 11, Day 1): −5.5 (6.0) score on a scale
- Change From Baseline in Overall Score on Lee cGvHD Symptom Scale, Mean (Standard Deviation) (Cohort 2: 200 mg BID, Cycle 12, Day 1): −7.6 (7.7) score on a scale
- Change From Baseline in Overall Score on Lee cGvHD Symptom Scale, Mean (Standard Deviation) (Cohort 2: 200 mg BID, Cycle 13, Day 1): −5.9 (8.8) score on a scale
- Change From Baseline in Overall Score on Lee cGvHD Symptom Scale, Mean (Standard Deviation) (Cohort 2: 200 mg BID, Cycle 14, Day 1): −5.0 (7.3) score on a scale
- Change From Baseline in Overall Score on Lee cGvHD Symptom Scale, Mean (Standard Deviation) (Cohort 2: 200 mg BID, Cycle 15, Day 1): −6.8 (7.0) score on a scale
- Change From Baseline in Overall Score on Lee cGvHD Symptom Scale, Mean (Standard Deviation) (Cohort 2: 200 mg BID, Cycle 16, Day 1): −6.9 (7.6) score on a scale
- Change From Baseline in Overall Score on Lee cGvHD Symptom Scale, Mean (Standard Deviation) (Cohort 2: 200 mg BID, Cycle 27, Day 1): −13.2 (6.6) score on a scale
- Change From Baseline in Overall Score on Lee cGvHD Symptom Scale, Mean (Standard Deviation) (Cohort 2: 200 mg BID, Cycle 29, Day 1): −11.0 (7.3) score on a scale
- Change From Baseline in Overall Score on Lee cGvHD Symptom Scale, Mean (Standard Deviation) (Cohort 2: 200 mg BID, Cycle 31, Day 1): −15.6 (4.3) score on a scale
- Change From Baseline in Overall Score on Lee cGvHD Symptom Scale, Mean (Standard Deviation) (Cohort 2: 200 mg BID, Cycle 33, Day 1): −13.5 (9.0) score on a scale
- Change From Baseline in Overall Score on Lee cGvHD Symptom Scale, Mean (Standard Deviation) (Cohort 2: 200 mg BID, Cycle 35, Day 1): −11.0 (12.4) score on a scale
- Change From Baseline in Overall Score on Lee cGvHD Symptom Scale, Mean (Standard Deviation) (Cohort 2: 200 mg BID, Cycle 37, Day 1): −13.6 (8.1) score on a scale
- Change From Baseline in Overall Score on Lee cGvHD Symptom Scale, Mean (Standard Deviation) (Cohort 2: 200 mg BID, Cycle 39, Day 1): −14.3 (8.5) score on a scale
- Change From Baseline in Overall Score on Lee cGvHD Symptom Scale, Mean (Standard Deviation) (Cohort 2: 200 mg BID, Cycle 41, Day 1): −19.3 (—) score on a scale
- Change From Baseline in Overall Score on Lee cGvHD Symptom Scale, Mean (Standard Deviation) (Cohort 2: 200 mg BID, Cycle 43, Day 1): −19.9 (—) score on a scale
- Change From Baseline in Overall Score on Lee cGvHD Symptom Scale, Mean (Standard Deviation) (Cohort 2: 200 mg BID, Cycle 47, Day 1): −16.8 (—) score on a scale
- Change From Baseline in Overall Score on Lee cGvHD Symptom Scale, Mean (Standard Deviation) (Cohort 2: 200 mg BID, Cycle 49, Day 1): −15.4 (—) score on a scale
- Change From Baseline in Overall Score on Lee cGvHD Symptom Scale, Mean (Standard Deviation) (Cohort 2: 200 mg BID, EOT): −2.4 (10.9) score on a scale
- LSS improvement, nonresponder, n/N (Cohort 3 400 mg QD): 2/8
- LSS improvement, responder, n/N (Cohort 3 400 mg QD): 9/13
- Change From Baseline in Overall Score on Lee cGvHD Symptom Scale, Mean (Standard Deviation) (Cohort 3: 400 mg QD, Cycle 2, Day 1): −5.2 (6.3) score on a scale
- Change From Baseline in Overall Score on Lee cGvHD Symptom Scale, Mean (Standard Deviation) (Cohort 3: 400 mg QD, Cycle 3, Day 1): −4.3 (8.2) score on a scale
- Change From Baseline in Overall Score on Lee cGvHD Symptom Scale, Mean (Standard Deviation) (Cohort 3: 400 mg QD, Cycle 4, Day 1): −2.7 (8.2) score on a scale
- Change From Baseline in Overall Score on Lee cGvHD Symptom Scale, Mean (Standard Deviation) (Cohort 3: 400 mg QD, Cycle 5, Day 1): −0.5 (10.8) score on a scale
- Change From Baseline in Overall Score on Lee cGvHD Symptom Scale, Mean (Standard Deviation) (Cohort 3: 400 mg QD, Cycle 6, Day 1): −0.8 (9.3) score on a scale
- Change From Baseline in Overall Score on Lee cGvHD Symptom Scale, Mean (Standard Deviation) (Cohort 3: 400 mg QD, Cycle 7, Day 1): −2.0 (12.3) score on a scale
- Change From Baseline in Overall Score on Lee cGvHD Symptom Scale, Mean (Standard Deviation) (Cohort 3: 400 mg QD, Cycle 8, Day 1): −2.9 (10.9) score on a scale
- Change From Baseline in Overall Score on Lee cGvHD Symptom Scale, Mean (Standard Deviation) (Cohort 3: 400 mg QD, Cycle 9, Day 1): −3.6 (10.2) score on a scale
- Change From Baseline in Overall Score on Lee cGvHD Symptom Scale, Mean (Standard Deviation) (Cohort 3: 400 mg QD, Cycle 10, Day 1): −3.7 (9.9) score on a scale
- Change From Baseline in Overall Score on Lee cGvHD Symptom Scale, Mean (Standard Deviation) (Cohort 3: 400 mg QD, Cycle 11, Day 1): −4.5 (6.1) score on a scale
- Change From Baseline in Overall Score on Lee cGvHD Symptom Scale, Mean (Standard Deviation) (Cohort 3: 400 mg QD, Cycle 12, Day 1): −2.8 (6.0) score on a scale
- Change From Baseline in Overall Score on Lee cGvHD Symptom Scale, Mean (Standard Deviation) (Cohort 3: 400 mg QD, Cycle 13, Day 1): −0.6 (7.1) score on a scale
- Change From Baseline in Overall Score on Lee cGvHD Symptom Scale, Mean (Standard Deviation) (Cohort 3: 400 mg QD, Cycle 14, Day 1): −1.5 (7.7) score on a scale
- Change From Baseline in Overall Score on Lee cGvHD Symptom Scale, Mean (Standard Deviation) (Cohort 3: 400 mg QD, Cycle 15, Day 1): −3.2 (8.2) score on a scale
- Change From Baseline in Overall Score on Lee cGvHD Symptom Scale, Mean (Standard Deviation) (Cohort 3: 400 mg QD, Cycle 16, Day 1): 1.9 (7.9) score on a scale
- Change From Baseline in Overall Score on Lee cGvHD Symptom Scale, Mean (Standard Deviation) (Cohort 3: 400 mg QD, Cycle 27, Day 1): −6.0 (9.6) score on a scale
- Change From Baseline in Overall Score on Lee cGvHD Symptom Scale, Mean (Standard Deviation) (Cohort 3: 400 mg QD, Cycle 28, Day 1): 2.6 (—) score on a scale
- Change From Baseline in Overall Score on Lee cGvHD Symptom Scale, Mean (Standard Deviation) (Cohort 3: 400 mg QD, Cycle 29, Day 1): −3.7 (13.0) score on a scale
- Change From Baseline in Overall Score on Lee cGvHD Symptom Scale, Mean (Standard Deviation) (Cohort 3: 400 mg QD, Cycle 31, Day 1): −12.9 (—) score on a scale
- Change From Baseline in Overall Score on Lee cGvHD Symptom Scale, Mean (Standard Deviation) (Cohort 3: 400 mg QD, Cycle 33, Day 1): −12.9 (—) score on a scale
- Change From Baseline in Overall Score on Lee cGvHD Symptom Scale, Mean (Standard Deviation) (Cohort 3: 400 mg QD, Cycle 35, Day 1): −12.9 (—) score on a scale
- Change From Baseline in Overall Score on Lee cGvHD Symptom Scale, Mean (Standard Deviation) (Cohort 3: 400 mg QD, Cycle 39, Day 1): −12.9 (—) score on a scale
- Change From Baseline in Overall Score on Lee cGvHD Symptom Scale, Mean (Standard Deviation) (Cohort 3: 400 mg QD, Cycle 41, Day 1): −12.9 (—) score on a scale
- Change From Baseline in Overall Score on Lee cGvHD Symptom Scale, Mean (Standard Deviation) (Cohort 3: 400 mg QD, Cycle 43, Day 1): −12.9 (—) score on a scale
- Change From Baseline in Overall Score on Lee cGvHD Symptom Scale, Mean (Standard Deviation) (Cohort 3: 400 mg QD, Cycle 45, Day 1): −12.3 (—) score on a scale
- Change From Baseline in Overall Score on Lee cGvHD Symptom Scale, Mean (Standard Deviation) (Cohort 3: 400 mg QD, Cycle 47, Day 1): −12.9 (—) score on a scale
- Change From Baseline in Overall Score on Lee cGvHD Symptom Scale, Mean (Standard Deviation) (Cohort 3: 400 mg QD, Cycle 49, Day 1): −14.3 (—) score on a scale
- Change From Baseline in Overall Score on Lee cGvHD Symptom Scale, Mean (Standard Deviation) (Cohort 3: 400 mg QD, Cycle 51, Day 1): −12.9 (—) score on a scale
- Change From Baseline in Overall Score on Lee cGvHD Symptom Scale, Mean (Standard Deviation) (Cohort 3: 400 mg QD, EOT): 2.5 (11.9) score on a scale
- clinically meaningful LSS improvement on consecutive assessments, nonresponders (Example 1): 32%
- clinically meaningful LSS improvement on consecutive assessments, responders (Example 1): 37%
- LSS improvement, nonresponder, n/N (Total, N=54): 7/19
- LSS improvement, responder, n/N (Total, N=54): 20/35
- clinically significant LSS improvement, overall, % (95% CI) (Total, N=54): 50%
